According to patent publication US20240041878A1, “APELIN RECEPTOR MODULATORS FOR TREATMENT OF A DISORDER OR DISEASE ASSOCIATED WITH BBB PERMEABILITY” (BioAge Labs, Inc., priority 2022, published 2024):

Columns and labels:
26 month-old mice = assay: Total BDNF ELISA in hippocampus of aged mice; type: in vivo, mouse; details: 50 mg/kg BID P.O. one week, p<0.05
Protocol: The mice were handled in accordance with principles and guidelines established by the “Guide for the Care and Use of Laboratory Animals” and overseen by the BioAge Lab's institutional animal care and use committee (IACUC). Mice were housed conventionally in a constant temperature (20-22° C.) and humidity (40%-60%) animal room with a 12/12 h light/dark cycle and free access to food and water. 26 month-old mice were randomized based on the body weight and body condition scores to two groups (vehicle or BGE-105, n=8). Mice were administered P.O. vehicle or BGE-105 at 50 mg/kg (BID) for one week. […]
Hippocampal samples were homogenized with 30 volumes of radioimmunoprecipitation immunoassay (RIPA) buffer with Halt Protease and Phosphatase Inhibitor (Thermofisher) before being spun at 16,000×g for 20 minutes at 4° C. and supernatant removed to new, labeled tube. Total protein concentrations for each sample were analyzed with Pierce BCA Protein Assay Kit (Thermofisher) according to manufacturer's instructions, then all samples were diluted to 0.2 μg/μL with RIPA buffer.
For quantitative analysis of hippocampal BDNF expression, tissue samples were assessed with Quantikine® enzyme-linked immunosorbent assay (ELISA) for Total BDNF (R&D Systems) according to manufacturer's instructions. […]

Mouse astrocyte cells = assay: CXCL1 and IL-6 ELISA of astrocyte culture media after RAC treatment; type: cell-based
Protocol: To stimulate astrocytes into a reactive state found in aging and neurodegenerative diseases per previous publications (Liddelow et al., 2017; Barbar et al., 2020), a combination of the cytokines TNF-α and IL-1α, and complement factor C1q, were added at 30 ng/mL, 3 ng/mL, and 400 ng/mL, respectively, into astrocyte culture media to make 'reactive astrocyte cocktail' (RAC) media. […] Bachem, Cat. #4029110), BAY-11-7082 (50 μM; Abcam, Cat. #ab141228) or equal volume of vehicle (0.01% DMSO in PBS) (hereafter referred to as 'RAC treatment'). Cells in Groups 3-6 were treated with RAC for 24 hours, with or without the test compounds (n=4 per group). • Group 1: Control [CON] • Group 2: CON+BGE-105 (50 nM) [CON+105] • Group 3: Reactive control treated with RAC only [RAC] • Group 4: RAC+BGE-105 (50 nM) [RAC+105] • Group 5: RAC+Pyrm-Apelin-13 (50 nM) • Group 6: RAC+BAY-11-7082 (NF-κB inhibitor; 50 μM) [RAC+BAY] Media from each tested cell group was collected for cytokine release analysis. Cells were lysed for RNA collection and RT-PCR was performed to synthesis cDNA under standard conditions. Next, transcriptome analysis was performed to determine the expression level of astrocyte genes or astrocyte responsive genes. Changes of expression was normalized to β-actin (FIGS. 8 and 9). Exemplary biomarkers include CCL2, CXCL10, CXCL11, CXCL1, CXCL2, CXCL3, CXCL8, EDN1, […]3, CIS, CTRL, C3, CFB, VEGF, and IL-6. For analysis of cytokines secreted by astrocytes, culture media was collected after RAC treatment, centrifuged at 10,000 RPM for 5 minutes to pellet any debris, and supernatant was transferred to a new tube and assayed immediately or frozen at -80° C. For individual analysis of CXCL1 or IL-6 concentrations, cell culture supernatant was diluted 1:50 or 1:10, respectively, and assessed using mouse-specific ELISA kits per manufacturer's protocols (R&D Systems, Cat. #DY453 and #DY406).

COc1cccc(OC)c1-n1c(NS(=O)(=O)[C@@H](C)[C@H](C)c2ncc(C)cn2)nnc1-c1cncc(C)c1 [BGE-105, (2S,3R)—N-(4-(2,6-dimethoxyphenyl)-5-(5-methyl-3-pyridinyl)-4H-1,2,4-triazol-3-yl)-3-(5-methyl-2-pyrimidinyl)-2-butanesulfonamide]
increase of concentration of total BDNF in the hippocampus (26 month-old mice): 20% | concentration of CXCL1 and IL-6 in media of control astrocytes (Mouse astrocyte cells; CON+105 (50 nM) versus CON): no or minimal impacts | astrocyte release of CXCL1 (FIG. 9) (Mouse astrocyte cells; RAC+105, BGE-105 50 nM, versus RAC, p=0.0032): greatly reduced | CXCL1 concentration/release (FIG. 12) (Mouse astrocyte cells; RAC+BGE-105 50 nM): about 40000 pg/ml | IL-6 concentration/release (FIG. 12) (Mouse astrocyte cells; RAC+BGE-105 50 nM): 5000 to 10000 pg/mL | astrocytic release of IL-6 (FIG. 9) (Mouse astrocyte cells; RAC+BGE-105, 50 nM, versus RAC, p=0.0008): reduced
